Results published in the NIST ThermoML archive (doi:10.1021/je050483s).
± gives the expanded uncertainty stated by the source.

Assays:
[1] = 101 kPa, Liquid
[2] = xn = mol fraction of the nth substance listed; details: 101 kPa, Liquid

C1CCNC1 [pyrrolidine]
[1]
Details | speed of sound [m/s]
293 K | 1389.4 ± 1.8
303 K | 1348 ± 1.8
313 K | 1305.8 ± 1.7
323 K | 1263 ± 1.7

C1CCNC1 [pyrrolidine] + O
speed of sound [m/s], [2]
Details | 293 K | 303 K | 313 K | 323 K
x1 = 0.006 | 1501.6 ± 1.5 | 1525.2 ± 1.5 | 1541.5 ± 1.5 | 1552.2 ± 1.5
x1 = 0.01 | 1517.1 ± 1.5 | 1537.1 ± 1.5 | 1551.1 ± 1.5 | 1559.7 ± 1.5
x1 = 0.022 | 1557.9 ± 1.5 | 1569.8 ± 1.5 | 1576.6 ± 1.5 | 1578.7 ± 1.5
x1 = 0.068 | 1650.5 ± 1.6 | 1635.1 ± 1.6 | 1619.3 ± 1.6 | 1602.3 ± 1.6
x1 = 0.116 | 1654.8 ± 1.6 | 1631.8 ± 1.6 | 1608 ± 1.6 | 1583.2 ± 1.6
x1 = 0.208 | 1626.3 ± 1.6 | 1596.4 ± 1.6 | 1565.5 ± 1.6 | 1533.5 ± 1.6
x1 = 0.304 | 1589.8 ± 1.6 | 1555.3 ± 1.6 | 1520 ± 1.6 | 1483.9 ± 1.6
x1 = 0.396 | 1556.7 ± 1.6 | 1519.5 ± 1.6 | 1481.6 ± 1.6 | 1443 ± 1.6
x1 = 0.483 | 1528.8 ± 1.6 | 1489.9 ± 1.6 | 1450.5 ± 1.6 | 1410.5 ± 1.6
x1 = 0.567 | 1500.3 ± 1.7 | 1458.9 ± 1.6 | 1422.2 ± 1.6 | 1377.7 ± 1.6
x1 = 0.686 | 1467.5 ± 1.7 | 1426.8 ± 1.6 | 1385.6 ± 1.6 | 1344 ± 1.6
x1 = 0.868 | 1416.6 ± 1.7 | 1375.5 ± 1.7 | 1333.8 ± 1.7 | 1291.7 ± 1.6
x1 = 1 | 1389.4 ± 1.8 | 1348 ± 1.8 | 1305.8 ± 1.7 | 1263 ± 1.7

C1CCNCC1 [piperidine] + O
speed of sound [m/s], [2]
Details | 293 K | 303 K | 313 K | 323 K
x1 = 0.006 | 1506.5 ± 1.8 | 1528.7 ± 1.8 | 1544.8 ± 1.8 | 1555.1 ± 1.8
x1 = 0.011 | 1531.1 ± 1.8 | 1548.7 ± 1.8 | 1560.4 ± 1.8 | 1566.8 ± 1.8
x1 = 0.028 | 1590.1 ± 1.9 | 1588.3 ± 1.9 | 1584.5 ± 1.9 | 1578.3 ± 1.9
x1 = 0.057 | 1596.3 ± 1.9 | 1587.1 ± 1.9 | 1576 ± 1.9 | 1562.7 ± 1.8
x1 = 0.099 | 1593.6 ± 1.9 | 1576.5 ± 1.9 | 1557.5 ± 1.8 | 1536.6 ± 1.8
x1 = 0.18 | 1575.4 ± 1.9 | 1547.9 ± 1.9 | 1519.2 ± 1.8 | 1489.3 ± 1.8
x1 = 0.267 | 1550.2 ± 1.9 | 1517.2 ± 1.9 | 1483.5 ± 1.8 | 1449 ± 1.8
x1 = 0.354 | 1525.1 ± 1.9 | 1489.1 ± 1.9 | 1452.5 ± 1.8 | 1415.4 ± 1.8
x1 = 0.439 | 1499.8 ± 1.9 | 1461.1 ± 1.8 | 1424 ± 1.8 | 1384.9 ± 1.8
x1 = 0.523 | 1477 ± 1.9 | 1438 ± 1.8 | 1398.6 ± 1.8 | 1358.9 ± 1.8
x1 = 0.646 | 1445.3 ± 1.9 | 1405.2 ± 1.8 | 1364.8 ± 1.8 | 1324.2 ± 1.8
x1 = 0.846 | 1406.2 ± 1.9 | 1365.1 ± 1.8 | 1323.6 ± 1.8 | 1282 ± 1.8
x1 = 1 | 1384.4 ± 1.9 | 1342.3 ± 1.8 | 1299.9 ± 1.8 | 1257.4 ± 1.8

O [water] + C1CCNC1
Details | speed of sound [m/s]
[2], 313 K, x2 = 0 | 1529 ± 1.5

O [water] + C1CCNCC1
Details | speed of sound [m/s]
[2], 313 K, x2 = 0 | 1529 ± 1.8

C1CCNCC1 [piperidine]
[1]
Details | speed of sound [m/s]
293 K | 1384.4 ± 1.9
303 K | 1342.3 ± 1.8
313 K | 1299.9 ± 1.8
323 K | 1257.4 ± 1.8
